Common to all, as to test: Kinase inhibition assay, IC50 (Table A)
Common to all, as to assay type: biochemical

In one test the target is ABL (Homo sapiens, UniProt P00519). To be noted: Enzyme ABL. The procedure:
(§1) The inhibiting activity of putative kinase inhibitors and the potency of selected compounds is determined through a method of assay based on the use of the Kinase-Glo® Luminescent Kinase Assay (commercially available from Promega corporation and described in Koresawa, M. and Okabe, T. (2004) High-throughput screening with quantitation of ATP consumption: A universal non-radioisotope, homogeneous assay for protein kinase. Assay Drug Dev. Technol. 2, 153-60).
(§2) The inhibitory activity of putative kinase inhibitors and the potency of selected compounds were also determined using a trans-phosphorylation assay.
(§3) Specific peptide or protein substrates are trans-phosphorylated by their specific ser-thr or tyr kinase in the presence of ATP traced with ^33P-γ-ATP, and in the presence of their own optimal buffer and cofactors. At the end of the phosphorylation reaction, more than 98% unlabeled ATP and radioactive ATP is captured by an excess of the ion exchange dowex resin; the resin then settles down to the bottom of the reaction plate by gravity. Supernatant is subsequently withdrawn and transferred into a counting plate, then evaluated by β-counting.
(§4) Reaction conditions are target (enzyme) dependent and thus undergo individual adaptations. Also the buffer conditions may vary depending on the kinase of interest. The assay can be used with virtually any kinase and substrate combination and is suitable for all type of protein kinases, such as ABL, ACK1, AKT1, ALK, AUR1, AUR2, BRK, BUB1, CDC7/DBF4, CDK21CYCA, CHK1, CK2, EEF2K, EGFR1, EphA2, EphB4, ERK2, FAK, FGFR1, FLT3, GSK3beta, Haspin, IGFR1, IKK2, IR, JAK1, JAK2, JAK3, KIT, LCK, LYN, MAPKAPK2, MELK, MET, MNK2, MPSI, MST4, NEK6, NIM1, P38alpha, PAK-4, PDGFR, PDK1, PERK, PIM1, PIM2, PKAalpha, PKCbeta, PLK1, RET, ROS1, SULU1, Syk, TLK2, TRKA, TYK, VEGFR2, VEGFR3, ZAP70.

The target in the next test is LCK (Homo sapiens, UniProt P06239). To be noted: Enzyme LCK. The procedure: as §1, §2, §3, §4
LCK, sequence (P06239 whole entry): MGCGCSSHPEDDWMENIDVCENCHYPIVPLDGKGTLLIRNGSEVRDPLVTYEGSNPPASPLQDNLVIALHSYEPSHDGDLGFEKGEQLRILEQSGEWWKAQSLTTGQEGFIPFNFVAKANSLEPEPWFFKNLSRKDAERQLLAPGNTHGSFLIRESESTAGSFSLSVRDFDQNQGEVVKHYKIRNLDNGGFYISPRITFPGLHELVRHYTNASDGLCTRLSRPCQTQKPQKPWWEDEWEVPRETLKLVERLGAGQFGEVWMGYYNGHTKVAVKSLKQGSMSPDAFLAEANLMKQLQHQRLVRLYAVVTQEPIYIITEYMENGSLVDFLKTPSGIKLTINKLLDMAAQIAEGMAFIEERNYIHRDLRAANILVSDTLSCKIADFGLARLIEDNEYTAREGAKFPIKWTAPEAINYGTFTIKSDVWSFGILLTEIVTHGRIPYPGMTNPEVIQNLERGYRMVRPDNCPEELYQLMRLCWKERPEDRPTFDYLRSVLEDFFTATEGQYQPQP
In the next test the target is KIT (Homo sapiens, UniProt P10721). To be noted: Enzyme KIT. The procedure: as §1, §2, §3, §4
KIT, sequence (P10721 26-976): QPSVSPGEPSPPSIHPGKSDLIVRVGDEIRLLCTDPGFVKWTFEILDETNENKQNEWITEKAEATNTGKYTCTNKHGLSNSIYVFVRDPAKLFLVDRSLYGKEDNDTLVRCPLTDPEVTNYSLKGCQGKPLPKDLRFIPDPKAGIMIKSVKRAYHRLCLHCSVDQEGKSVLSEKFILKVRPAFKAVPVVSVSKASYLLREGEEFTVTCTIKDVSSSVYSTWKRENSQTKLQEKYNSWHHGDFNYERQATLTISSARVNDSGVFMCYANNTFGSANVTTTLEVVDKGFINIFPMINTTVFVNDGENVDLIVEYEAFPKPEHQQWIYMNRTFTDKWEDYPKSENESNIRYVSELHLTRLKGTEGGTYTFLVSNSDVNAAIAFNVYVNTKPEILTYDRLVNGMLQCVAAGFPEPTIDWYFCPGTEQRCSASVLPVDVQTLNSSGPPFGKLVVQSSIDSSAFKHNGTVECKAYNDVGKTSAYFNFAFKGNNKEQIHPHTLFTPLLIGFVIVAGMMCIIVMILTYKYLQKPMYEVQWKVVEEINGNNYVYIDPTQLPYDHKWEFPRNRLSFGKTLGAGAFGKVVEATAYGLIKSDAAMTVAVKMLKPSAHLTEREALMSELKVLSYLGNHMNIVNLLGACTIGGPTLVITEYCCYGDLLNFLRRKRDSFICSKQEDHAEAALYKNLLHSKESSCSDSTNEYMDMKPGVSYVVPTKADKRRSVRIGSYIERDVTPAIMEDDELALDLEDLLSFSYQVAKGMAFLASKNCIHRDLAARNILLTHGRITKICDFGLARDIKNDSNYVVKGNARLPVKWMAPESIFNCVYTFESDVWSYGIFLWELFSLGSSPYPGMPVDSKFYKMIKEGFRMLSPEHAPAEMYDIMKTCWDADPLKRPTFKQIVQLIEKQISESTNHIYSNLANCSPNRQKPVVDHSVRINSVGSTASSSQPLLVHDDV
Another test deals with ACK1 (Homo sapiens, UniProt Q07912). Particulars: Enzyme ACK1. The procedure:
as §1, §2, §3, §4

The target in another test is ALK (Homo sapiens, UniProt Q9UM73). Particulars: Enzyme ALK. The procedure: as §1
As example herein are reported the assay conditions used for testing the compounds of formula (I) against ALKtide YFF APCo kinase; • ATP concentration: 1 μM • Enzyme concentration: 100 nM • Reaction buffer: Hepes 50 mM pH 7.5, MgCl2 5 mM, MnCl2 1 mM, DTT 1 mM, Na3VO4 3 uM, 0.2 mg/ml BSA. • Assay procedure: add 5 ul compound of formula (I) (3×), add 5 μl ATP/S mix (3×) in buffer 1×; add 5 μl enzyme in buffer 2×+3×BSA; for the blank, add 5 μl buffer 2×+3×BSA without enzyme. After 90 minutes of incubation, add 15 μl/well of Kinase-Glo reagent. After 60-90 minutes of incubation to stabilize the luminescent signal, the plates are read on a ViuwLux instrument.
as §2, §3
Reaction conditions are target (enzyme) dependent and thus undergo individual adaptations. Also the buffer conditions may vary depending on the kinase of interest. […]

The target of another test is BRK (Homo sapiens, UniProt Q13882). To be noted: Enzyme BRK. Here is the method: as §1, §2, §3, §4
BRK, sequence (Q13882 whole entry): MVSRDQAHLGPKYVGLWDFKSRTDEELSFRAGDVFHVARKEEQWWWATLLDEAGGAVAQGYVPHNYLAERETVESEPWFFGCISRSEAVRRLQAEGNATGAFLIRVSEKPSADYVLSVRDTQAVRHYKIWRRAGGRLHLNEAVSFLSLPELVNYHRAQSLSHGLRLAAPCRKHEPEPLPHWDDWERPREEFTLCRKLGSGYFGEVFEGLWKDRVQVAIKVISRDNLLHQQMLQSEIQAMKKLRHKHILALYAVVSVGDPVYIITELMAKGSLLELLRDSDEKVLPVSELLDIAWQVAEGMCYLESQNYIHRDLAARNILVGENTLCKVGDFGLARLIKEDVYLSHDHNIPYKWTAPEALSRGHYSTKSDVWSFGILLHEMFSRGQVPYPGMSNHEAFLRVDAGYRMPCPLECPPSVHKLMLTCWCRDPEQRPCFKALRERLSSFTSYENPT
The target in the next test is EGFR1 (Homo sapiens, UniProt P00533). Particulars: Enzyme EGFR1. The procedure:
as §1, §2, §3, §4

The target in a further test is FGFR1 (Homo sapiens, UniProt P11362). Particulars: Enzyme FGFR1. Here is the method:
as §1, §2, §3, §4

In the next test the target is MELK (Homo sapiens, UniProt Q14680). To be noted: Enzyme MELK. Here is the method:
as §1, §2, §3, §4

The next test deals with Syk (Homo sapiens, UniProt P43405). To be noted: Enzyme Syk. Here is the method: as §1, §2, §3, §4
Another test addresses T1, ZAP70 (Homo sapiens, UniProt P43403).
T1 sequence (P43403 1-619): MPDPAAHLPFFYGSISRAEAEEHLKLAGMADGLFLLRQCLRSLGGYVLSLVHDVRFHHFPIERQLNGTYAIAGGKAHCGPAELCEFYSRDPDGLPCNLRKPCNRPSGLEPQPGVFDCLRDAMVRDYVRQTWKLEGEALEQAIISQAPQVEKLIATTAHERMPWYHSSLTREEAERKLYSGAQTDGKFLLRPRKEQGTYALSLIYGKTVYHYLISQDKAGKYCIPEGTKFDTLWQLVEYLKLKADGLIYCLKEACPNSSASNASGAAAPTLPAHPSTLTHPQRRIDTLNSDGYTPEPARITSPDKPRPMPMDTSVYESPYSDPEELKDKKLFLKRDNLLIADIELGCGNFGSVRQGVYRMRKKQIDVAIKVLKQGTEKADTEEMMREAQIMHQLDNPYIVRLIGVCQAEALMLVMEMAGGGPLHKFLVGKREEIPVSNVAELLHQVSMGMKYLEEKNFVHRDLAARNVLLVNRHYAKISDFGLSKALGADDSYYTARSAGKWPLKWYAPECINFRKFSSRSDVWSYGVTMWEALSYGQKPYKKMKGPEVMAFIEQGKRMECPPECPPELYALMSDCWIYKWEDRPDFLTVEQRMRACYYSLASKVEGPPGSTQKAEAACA
To be noted: Enzyme ZAP70. The procedure:
as §1, §2, §3, §4

The target of another test is LYN (Homo sapiens, UniProt P07948). Particulars: Enzyme LYN. The procedure:
as §1, §2, §3, §4

Another test addresses VEGFR3 (Homo sapiens, UniProt P35916). Particulars: Enzyme VEGFR3. Here is the method:
as §1, §2, §3, §4

For another test, the target named is PKCbeta (Homo sapiens, UniProt P05771). To be noted: Enzyme PKCbeta. Here is the method: as §1, §2, §3, §4

Where “and” joins values, the source holds several entries; their conditions need not be identical. Identical values can stand only once.

MELK, sequence (Q14680 whole entry): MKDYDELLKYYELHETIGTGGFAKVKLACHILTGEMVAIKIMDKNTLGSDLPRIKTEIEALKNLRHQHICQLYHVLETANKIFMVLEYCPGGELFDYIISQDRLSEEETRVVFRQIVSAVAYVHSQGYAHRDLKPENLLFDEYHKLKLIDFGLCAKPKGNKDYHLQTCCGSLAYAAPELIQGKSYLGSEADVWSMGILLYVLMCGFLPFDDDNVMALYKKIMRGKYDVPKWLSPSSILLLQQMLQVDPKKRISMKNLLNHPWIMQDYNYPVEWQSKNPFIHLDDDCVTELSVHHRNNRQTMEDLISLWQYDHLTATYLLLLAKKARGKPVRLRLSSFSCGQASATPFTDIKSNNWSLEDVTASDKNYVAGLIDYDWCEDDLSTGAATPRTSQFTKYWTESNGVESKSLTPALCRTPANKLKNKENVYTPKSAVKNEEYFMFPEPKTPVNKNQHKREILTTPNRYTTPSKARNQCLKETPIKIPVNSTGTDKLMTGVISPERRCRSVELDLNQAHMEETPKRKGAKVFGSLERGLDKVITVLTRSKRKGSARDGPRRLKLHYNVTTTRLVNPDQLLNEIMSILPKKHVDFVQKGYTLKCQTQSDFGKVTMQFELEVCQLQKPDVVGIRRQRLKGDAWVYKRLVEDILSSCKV
ACK1, sequence (Q07912 whole entry): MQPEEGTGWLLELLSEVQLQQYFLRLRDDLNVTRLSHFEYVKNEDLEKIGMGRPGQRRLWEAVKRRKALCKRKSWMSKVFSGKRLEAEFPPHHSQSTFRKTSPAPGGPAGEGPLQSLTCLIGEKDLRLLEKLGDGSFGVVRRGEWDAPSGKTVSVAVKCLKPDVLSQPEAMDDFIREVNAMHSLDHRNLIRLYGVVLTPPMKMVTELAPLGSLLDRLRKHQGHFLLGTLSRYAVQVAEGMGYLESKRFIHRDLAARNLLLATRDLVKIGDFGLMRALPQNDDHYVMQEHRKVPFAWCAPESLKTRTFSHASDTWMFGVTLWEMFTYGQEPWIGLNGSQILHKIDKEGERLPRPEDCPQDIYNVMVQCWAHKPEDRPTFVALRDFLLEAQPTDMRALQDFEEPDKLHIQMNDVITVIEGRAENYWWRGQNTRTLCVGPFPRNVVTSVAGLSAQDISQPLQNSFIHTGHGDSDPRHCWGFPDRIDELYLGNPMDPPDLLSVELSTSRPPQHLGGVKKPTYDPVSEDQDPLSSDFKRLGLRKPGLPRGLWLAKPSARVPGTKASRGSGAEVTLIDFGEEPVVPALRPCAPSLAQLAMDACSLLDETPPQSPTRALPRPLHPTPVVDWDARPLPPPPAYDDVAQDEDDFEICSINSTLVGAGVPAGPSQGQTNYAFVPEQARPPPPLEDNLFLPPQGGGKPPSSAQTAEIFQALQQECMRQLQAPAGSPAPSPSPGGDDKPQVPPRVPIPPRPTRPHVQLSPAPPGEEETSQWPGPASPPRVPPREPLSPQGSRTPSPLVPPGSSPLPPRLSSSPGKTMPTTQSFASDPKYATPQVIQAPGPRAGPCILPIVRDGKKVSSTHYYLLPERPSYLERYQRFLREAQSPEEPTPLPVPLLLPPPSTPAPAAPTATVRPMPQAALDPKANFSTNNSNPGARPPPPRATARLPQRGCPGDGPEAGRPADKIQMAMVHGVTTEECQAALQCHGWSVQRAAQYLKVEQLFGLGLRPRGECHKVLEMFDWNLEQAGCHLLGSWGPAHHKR
ABL, sequence (P00519 whole entry): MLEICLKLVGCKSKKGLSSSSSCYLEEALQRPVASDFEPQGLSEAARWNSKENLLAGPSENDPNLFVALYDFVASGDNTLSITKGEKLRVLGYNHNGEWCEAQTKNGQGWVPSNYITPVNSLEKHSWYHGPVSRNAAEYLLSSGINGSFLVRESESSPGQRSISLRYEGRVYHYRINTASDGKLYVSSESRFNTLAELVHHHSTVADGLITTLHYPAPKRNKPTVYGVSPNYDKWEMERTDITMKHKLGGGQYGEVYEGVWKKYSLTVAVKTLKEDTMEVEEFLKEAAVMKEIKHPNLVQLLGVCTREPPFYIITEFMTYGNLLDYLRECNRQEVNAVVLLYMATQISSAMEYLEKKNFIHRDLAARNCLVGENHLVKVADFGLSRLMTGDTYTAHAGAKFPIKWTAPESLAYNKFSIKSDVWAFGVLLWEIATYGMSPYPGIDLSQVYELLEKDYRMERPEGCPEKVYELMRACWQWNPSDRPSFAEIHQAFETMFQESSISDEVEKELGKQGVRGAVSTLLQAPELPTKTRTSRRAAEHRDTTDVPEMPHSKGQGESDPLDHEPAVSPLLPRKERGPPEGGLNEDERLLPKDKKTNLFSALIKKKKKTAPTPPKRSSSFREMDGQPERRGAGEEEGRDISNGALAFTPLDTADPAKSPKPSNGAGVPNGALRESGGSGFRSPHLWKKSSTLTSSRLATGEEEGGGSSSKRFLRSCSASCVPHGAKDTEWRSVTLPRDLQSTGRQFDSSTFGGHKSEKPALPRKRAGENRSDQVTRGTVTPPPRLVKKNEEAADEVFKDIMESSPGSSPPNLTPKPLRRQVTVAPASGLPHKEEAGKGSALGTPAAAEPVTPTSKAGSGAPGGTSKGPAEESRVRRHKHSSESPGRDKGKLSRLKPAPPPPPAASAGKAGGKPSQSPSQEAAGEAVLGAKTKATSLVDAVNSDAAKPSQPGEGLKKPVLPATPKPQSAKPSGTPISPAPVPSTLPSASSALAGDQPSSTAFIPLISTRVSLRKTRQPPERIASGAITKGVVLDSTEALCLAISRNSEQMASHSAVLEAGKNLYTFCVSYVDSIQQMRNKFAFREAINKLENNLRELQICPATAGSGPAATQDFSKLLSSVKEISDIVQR

As a reminder, the IC50 is the concentration needed to halve the response being measured. Turning to `C=CCNC(=O)c1cc2n(c1)CCc1c(NC(=O)c3ccccc3C)n[nH]c1-2` [Example A21-M1-B36], the IC50 at ABL worked out at 3.23 µM; on LCK it was 5.14 µM; at KIT, 5.03 µM; at ACK1, 3.34 µM.
For the compound `O=C(NCCN1CCCC1)c1cc2n(c1)CCc1c(NC(=O)c3ccccc3Cl)n[nH]c1-2` [Example A5-M1-B43], the IC50 at ALK stood at 3.4 µM; at BRK, 4.68 µM; at ABL, 0.54 µM; at EGFR1 it was 7.87 µM; on LCK, 0.59 µM; on FGFR1, 7.27 µM. Besides, the IC50 on KIT came to 1.31 µM; on ACK1, 1.01 µM.
For `O=C(Nc1n[nH]c2c1CCCn1cc(C(=O)NC3CCCC3)cc1-2)c1cccnc1` [Example A32-M2-B28], the IC50 at MELK turned out to be 3.09 µM; at Syk, 1.63 µM; on ZAP70 it was 0.8 µM.
As to `Cc1ccc(C(=O)Nc2n[nH]c3c2CCn2cc(C(=O)N4CCCC4)cc2-3)c(C)c1` [Example A35-M1-B8, 2,4-dimethyl-N-[8-(pyrrolidin-1-ylcarbonyl)-4,5-dihydro-1H-pyrazolo[4,3-g]indolizin-3-yl]benzamide], the concentration for half-maximal inhibition (IC50) on ABL was 3.5 µM; at LYN, 2.13 µM; on KIT, 3.52 µM; on ACK1 it was 0.49 µM and 0.3 µM.
Consider `Cc1ccc(C(=O)Nc2n[nH]c3c2CCn2cc(C(=O)N4CCC(N5CCCCC5)CC4)cc2-3)c(C)c1` [Example A35-M1-B34], for which the half-inhibitory concentration (IC50) amounted to 4.91 µM on ALK; 3.98 µM on VEGFR3; 4.35 µM on BRK; 4.17 µM at PKCbeta; 4.31 µM at ABL; 3.5 µM at LCK. Moreover, the IC50 is 5.76 µM on FGFR1; 1.08 µM and 1.58 µM on ACK1.
Consider `O=C(Nc1n[nH]c2c1CCn1cc(C(=O)N3CCC(N4CCCCC4)CC3)cc1-2)c1ccccc1Cl` [Example A5-M1-B34], for which the IC50 on ALK was determined as 5.81 µM; on VEGFR3, 4.94 µM; on BRK, 0.86 µM; on ABL it was 0.82 µM; on LCK, 3.99 µM; at KIT it was 4.13 µM. The IC50 at ACK1 stood at 0.36 µM.
With `O=C(NCc1ccncc1)c1cc2n(c1)CCCc1c(NC(=O)c3ccccc3)n[nH]c1-2` [Example A1-M2-B25], the IC50 at ZAP70 was determined as 1.56 µM.
On to `CCN1CCN(C(=O)c2cc3n(c2)CCCc2c(NC(=O)c4cc(C)cc(C)c4)n[nH]c2-3)CC1` [Example A24-M2-B37], for which the IC50 on MELK was 3 µM; at Syk, 2.78 µM; on ZAP70, 1.15 µM.
On the same counts, the results for `Cc1ccc(C(=O)Nc2n[nH]c3c2CCCn2cc(C(=O)N4CCCC4)cc2-3)cc1F` [Example A30-M2-B8] are 2.57 µM, 2.1 µM and 0.59 µM.
For `CCS(=O)(=O)Nc1n[nH]c2c1CCCn1cc(C(=O)NCCOC)cc1-2` [Example A42-M2-B33], the results for the IC50 on Syk and on ZAP70 were 3.15 µM and 1.83 µM, respectively.
As for `O=C(NCC1CC1)c1cc2n(c1)CCc1c(NC(=O)c3ccccc3Cl)n[nH]c1-2` [Example A5-M1-B41], the 50% inhibitory concentration (IC50) on BRK is 4.35 µM; on ABL, 0.4 µM; on LCK, 1.15 µM; at KIT, 1.83 µM; on ACK1 it was 0.96 µM.
As to `CC(C)(C)C(=O)Nc1n[nH]c2c1CCCn1cc(C(=O)N3CCC(N4CCCCC4)CC3)cc1-2` [Example A33-M2-B34], the IC50 at MELK was 1.23 µM; on Syk it was 0.48 µM; on ACK1 it was 1.44 µM; at ZAP70 it was 0.72 µM.

(Values after patent publication US9127015B2, “Tricyclopyrazole derivatives” (NERVIANO MEDICAL SCIENCES S.R.L., priority 2009, dated 2015).)
